ChEMBL document CHEMBL1144164, “Carbonic anhydrase inhibitors: inhibition of the beta-class enzymes from the fungal pathogens Candida albicans and Cryptococcus neoformans with simple anions” (Bioorg Med Chem Lett, 2008)

What was measured:
[1] = molecular target: Carbonic anhydrase 1 (Homo sapiens) (UniProt P00915)
Description: Inhibition of human carbonic anhydrase 1 at 20 degC by CO2 hydration method

[2] = molecular target: Carbonic anhydrase 2 (Homo sapiens) (UniProt P00918)
Description: Inhibition of human carbonic anhydrase 2 at 20 degC by CO2 hydration method

[3] = molecular target: T1, Carbonic anhydrase (Methanobacterium thermoautotrophicum) (UniProt Q50565); conditions: Methanothermobacter thermautotrophicus
T1 sequence (whole entry): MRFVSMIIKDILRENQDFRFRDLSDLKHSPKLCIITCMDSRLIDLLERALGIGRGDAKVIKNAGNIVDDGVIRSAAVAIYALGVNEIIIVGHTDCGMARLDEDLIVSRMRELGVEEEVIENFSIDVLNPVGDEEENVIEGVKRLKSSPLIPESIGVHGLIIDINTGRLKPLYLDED
Description: Inhibition of Methanobacterium thermoautotrophicum Cab at 20 degC by CO2 hydration method

[4] = system: Cryptococcus neoformans
Description: Inhibition of Cryptococcus neoformans Can2 at 20 degC by CO2 hydration method

Carbonic anhydrase 1 (Homo sapiens), sequence (P00915 2-261 limits assumed): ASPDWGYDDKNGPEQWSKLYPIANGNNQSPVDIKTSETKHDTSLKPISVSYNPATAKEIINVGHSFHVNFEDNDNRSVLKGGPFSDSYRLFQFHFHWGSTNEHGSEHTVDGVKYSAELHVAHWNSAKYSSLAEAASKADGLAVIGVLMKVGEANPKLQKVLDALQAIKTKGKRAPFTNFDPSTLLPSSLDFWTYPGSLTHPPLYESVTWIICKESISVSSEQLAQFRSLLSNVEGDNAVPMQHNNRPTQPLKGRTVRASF

Which Kinact [1] does the source give for `NS(=O)(=O)O` here?
The Kinact was 0.021 mM.

And the Kinact [2]?
The Kinact was 0.39 mM.

And the Kinact [3]?
The Kinact was 44 mM.

And the Kinact [4]?
Its Kinact is 8.22 mM.
